{
  "source": "ChEMBL document CHEMBL3352039",
  "about": "“Semisynthesis of triptolide analogues: effect of B-ring substituents on cytotoxic activities” (Bioorg Med Chem Lett, 2014)",
  "key": {"[1]": {"assay": "Cytotoxicity against human PC3 cells assessed as inhibition of cell proliferation by sulforhodamine B assay", "format": "functional, cell-based", "conditions": "PC-3"}, "[2]": {"tested_on": "U-251", "assay": "Cytotoxicity against human U251 cells assessed as inhibition of cell proliferation by sulforhodamine B assay", "format": "functional, cell-based"}},
  "data": [
    {"smiles": "CC(C)[C@]12O[C@H]1[C@@H]1O[C@@]13[C@@]1(C)CCC4=C(COC4=O)[C@]1(Br)C[C@@H]1O[C@@]13[C@]21CO1", "values": [
      {"measurement": "IC50", "setting": "[1]", "value": 893, "unit": "nM"},
      {"measurement": "IC50", "setting": "[2]", "value": 2040, "unit": "nM"}
    ]},
    {"smiles": "CC(C)[C@]12O[C@H]1[C@@H]1O[C@@]13[C@@]1(C)CCC4=C(COC4=O)C1=C[C@@H]1O[C@@]13C2=O", "values": [
      {"measurement": "IC50", "setting": "[1]", "value": 171, "unit": "nM"},
      {"measurement": "IC50", "setting": "[2]", "value": 1630, "unit": "nM"}
    ]},
    {"smiles": "CC(C)[C@]12O[C@H]1[C@@H]1O[C@@]13[C@@]1(C)CCC4=C(COC4=O)[C@]1(O)C[C@@H]1O[C@@]13C2=O", "values": [
      {"measurement": "IC50", "setting": "[1]", "value": 377, "unit": "nM"},
      {"measurement": "IC50", "setting": "[2]", "value": 1030, "unit": "nM"}
    ]},
    {"smiles": "CC(C)[C@]12O[C@H]1[C@@H]1O[C@@]13[C@@]1(C)CCC4=C(COC4=O)[C@]1(F)C[C@@H]1O[C@@]13C2=O", "values": [
      {"measurement": "IC50", "setting": "[1]", "value": 223, "unit": "nM"},
      {"measurement": "IC50", "setting": "[2]", "value": 429, "unit": "nM"}
    ]},
    {"smiles": "CC(C)[C@]12O[C@H]1[C@@H]1O[C@@]13[C@@]1(C)CCC4=C(COC4=O)[C@@]1(O)[C@@H](O)[C@@H]1O[C@@]13C2=O", "values": [
      {"measurement": "IC50", "setting": "[1]", "value": 5040, "unit": "nM"},
      {"measurement": "IC50", "setting": "[2]", "value": 9860, "unit": "nM"}
    ]},
    {"smiles": "CC(C)[C@]12O[C@H]1[C@@H]1O[C@@]13[C@@]1(C)CCC4=C(COC4=O)[C@]1(O)[C@@H](O)[C@@H]1O[C@@]13C2=O", "values": [
      {"measurement": "IC50", "setting": "[1]", "value": 2270, "unit": "nM"},
      {"measurement": "IC50", "setting": "[2]", "value": 2970, "unit": "nM"}
    ]},
    {"smiles": "CC(C)[C@]12O[C@H]1[C@@H]1O[C@]13[C@]1(O[C@H]1C=C1C4=C(CC[C@@]13C)C(=O)OC4)[C@H]2O", "values": [
      {"measurement": "IC50", "setting": "[1]", "value": 3220, "unit": "nM"},
      {"measurement": "IC50", "setting": "[2]", "value": 5040, "unit": "nM"}
    ]},
    {"smiles": "CC(C)[C@]12O[C@H]1[C@@H]1O[C@]13[C@@]1(O[C@@H]1C[C@H]1C4=C(CC[C@@]13C)C(=O)OC4)[C@@H]2O", "values": [
      {"measurement": "IC50", "setting": "[1]", "value": "> 10000", "unit": "nM"},
      {"measurement": "IC50", "setting": "[2]", "value": "> 10000", "unit": "nM"}
    ]},
    {"smiles": "CC(C)[C@]12O[C@H]1[C@@H]1O[C@]13[C@]1(O[C@H]1C[C@@]1(Br)C4=C(CC[C@]31C)C(=O)OC4)[C@@H]2O", "values": [
      {"measurement": "IC50", "setting": "[1]", "value": 333, "unit": "nM"},
      {"measurement": "IC50", "setting": "[2]", "value": 796, "unit": "nM"}
    ]},
    {"smiles": "CC(C)[C@]12O[C@H]1[C@@H]1O[C@@]13[C@@]1(C)CCC4=C(COC4=O)[C@]1(Cl)C[C@@H]1O[C@@]13C2=O", "values": [
      {"measurement": "IC50", "setting": "[1]", "value": 85, "unit": "nM"},
      {"measurement": "IC50", "setting": "[2]", "value": 170, "unit": "nM"}
    ]},
    {"smiles": "CC(C)[C@]12O[C@H]1[C@@H]1O[C@@]13[C@@]1(C)CCC4=C(COC4=O)[C@]1(Br)C[C@@H]1O[C@@]13C2=O", "values": [
      {"measurement": "IC50", "setting": "[1]", "value": 104, "unit": "nM"},
      {"measurement": "IC50", "setting": "[2]", "value": 558, "unit": "nM"}
    ]},
    {"smiles": "CC(C)[C@]12O[C@H]1[C@@H]1O[C@]13[C@]1(O[C@H]1C[C@H]1C4=C(CC[C@@]13C)C(=O)OC4)[C@@H]2O", "note": "[TRIPTOLIDE]", "values": [
      {"measurement": "IC50", "setting": "[1]", "value": 20, "unit": "nM"},
      {"measurement": "IC50", "setting": "[2]", "value": 33, "unit": "nM"}
    ]},
    {"smiles": "CC(C)[C@]12O[C@H]1[C@@H]1O[C@@]13[C@@]1(C)CCC4=C(COC4=O)[C@@H]1C[C@@H]1O[C@@]13C2=O", "note": "[TRIPTONIDE]", "values": [
      {"measurement": "IC50", "setting": "[1]", "value": 26, "unit": "nM"},
      {"measurement": "IC50", "setting": "[2]", "value": 31, "unit": "nM"}
    ]},
    {"smiles": "CC(C)[C@]12O[C@H]1[C@@H]1O[C@]13[C@]1(O[C@H]1C=C1C4=C(CC[C@@]13C)C(=O)OC4)[C@@H]2O", "values": [
      {"measurement": "IC50", "setting": "[1]", "value": 126, "unit": "nM"},
      {"measurement": "IC50", "setting": "[2]", "value": 718, "unit": "nM"}
    ]},
    {"smiles": "CC(C)[C@]12O[C@H]1[C@@H]1O[C@@]13[C@@]1(C)CCC4=C(COC4=O)[C@]1(O)C[C@@H]1O[C@@]13[C@]21CO1", "values": [
      {"measurement": "IC50", "setting": "[1]", "value": 2610, "unit": "nM"},
      {"measurement": "IC50", "setting": "[2]", "value": 5470, "unit": "nM"}
    ]},
    {"smiles": "CC(C)[C@]12O[C@H]1[C@@H]1O[C@]13[C@]1(O[C@H]1[C@H](O)[C@@]1(O)C4=C(CC[C@]31C)C(=O)OC4)[C@@H]2O", "values": [
      {"measurement": "IC50", "setting": "[1]", "value": 589, "unit": "nM"},
      {"measurement": "IC50", "setting": "[2]", "value": 1580, "unit": "nM"}
    ]},
    {"smiles": "CC(C)[C@]12O[C@H]1[C@@H]1O[C@]13[C@]1(O[C@H]1[C@H](O)[C@@]1(O)C4=C(CC[C@]31C)C(=O)OC4)[C@H]2O", "values": [
      {"measurement": "IC50", "setting": "[1]", "value": "> 10000", "unit": "nM"},
      {"measurement": "IC50", "setting": "[2]", "value": "> 10000", "unit": "nM"}
    ]},
    {"smiles": "CC(C)[C@]12O[C@H]1[C@@H]1O[C@]13[C@]1(O[C@H]1C[C@@]1(O)C4=C(CC[C@]31C)C(=O)OC4)[C@@H]2O", "values": [
      {"measurement": "IC50", "setting": "[1]", "value": 275, "unit": "nM"},
      {"measurement": "IC50", "setting": "[2]", "value": 488, "unit": "nM"}
    ]},
    {"smiles": "CC(C)[C@]12O[C@H]1[C@@H]1O[C@@]13[C@@]1(C)CCC4=C(COC4=O)[C@]1(Cl)C[C@@H]1O[C@@]13[C@]21CO1", "values": [
      {"measurement": "IC50", "setting": "[1]", "value": 871, "unit": "nM"},
      {"measurement": "IC50", "setting": "[2]", "value": 925, "unit": "nM"}
    ]},
    {"smiles": "CC(C)[C@]12O[C@H]1[C@@H]1O[C@]13C(=CC[C@H]1C4=C(CC[C@@]13C)C(=O)OC4)[C@@H]2O", "values": [
      {"measurement": "IC50", "setting": "[1]", "value": "> 10000", "unit": "nM"},
      {"measurement": "IC50", "setting": "[2]", "value": "> 10000", "unit": "nM"}
    ]},
    {"smiles": "CC(C)[C@]12O[C@H]1[C@@H]1O[C@@]13[C@@]1(C)CCC4=C(COC4=O)[C@@]14O[C@H]4[C@@H]1O[C@@]13C2=O", "values": [
      {"measurement": "IC50", "setting": "[1]", "value": 4050, "unit": "nM"},
      {"measurement": "IC50", "setting": "[2]", "value": 197, "unit": "nM"}
    ]}
  ]
}
